Results: PubChem BioAssay (NCI)
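Tested at 5 concentrations; 48 h exposure; 96-well plates; endpoints linearly interpolated, else capped at highest concentration. The concentration for 50% growth inhibition is given as GI50. At the TGI there is no net growth.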 Calls of active or inactive are those of the source. No stated cut-off is given here; in the data, active means GI50 below about 0.43 µM; inactive means the rest.

Experiments:
Experiment in all cases: DTP human tumour cell line panel, 48 h
[1] = tested on: KM12 colon
[2] = tested on: SF-268 CNS
[3] = tested on: T-47D breast
[4] = tested on: SK-MEL-28 melanoma
[5] = tested on: MDA-MB-231 breast
[6] = tested on: RXF 393 renal
[7] = tested on: NCI-H23 lung
[8] = tested on: EKVX NSCLC
[9] = tested on: BT-549 breast
[10] = tested on: UACC-257 melanoma
[11] = tested on: MCF7 breast
[12] = tested on: SK-MEL-2 melanoma
[13] = tested on: U251 CNS
[14] = tested on: LOX IMVI melanoma
[15] = tested on: A498 renal
[16] = tested on: DU-145 prostate
[17] = tested on: OVCAR-5 ovarian
[18] = tested on: IGROV1 ovarian
[19] = tested on: UACC-62 melanoma
[20] = tested on: ACHN renal
[21] = tested on: SNB-19 CNS
[22] = tested on: PC-3 prostate
[23] = tested on: NCI-H226 lung
[24] = tested on: SW-620 colon
[25] = tested on: SK-MEL-5 melanoma
[26] = tested on: SK-OV-3 ovarian
[27] = tested on: NCI-H460 lung
[28] = tested on: SF-295 CNS
[29] = tested on: HOP-62 NSCLC
[30] = tested on: HCT-116 colon
[31] = tested on: RPMI-8226 leukemia
[32] = tested on: OVCAR-8 ovarian
[33] = tested on: CAKI-1 renal
[34] = tested on: M14 melanoma
[35] = tested on: SR leukemia
[36] = tested on: HCT-15 colon
[37] = tested on: COLO 205 colon
[38] = tested on: HCC-2998 colon
[39] = tested on: HT29 colon
[40] = tested on: MDA-MB-435
[41] = tested on: K-562 leukemia
[42] = tested on: SF-539 CNS
[43] = tested on: OVCAR-4 ovarian
[44] = tested on: MOLT-4 leukemia
[45] = tested on: TK-10 renal
[46] = tested on: CCRF-CEM leukemia
[47] = tested on: OVCAR-3 ovarian
[48] = tested on: 786-0 renal
[49] = tested on: NCI/ADR-RES ovarian
[50] = tested on: A549 NSCLC
[51] = tested on: UO-31 renal
[52] = tested on: MALME-3M melanoma
[53] = tested on: HOP-92 NSCLC
[54] = tested on: HS 578T breast
[55] = tested on: SN12C renal
[56] = tested on: SNB-75 CNS
[57] = tested on: NCI-H522 lung

CS(=O)(=O)O[C@H]1CN2C[C@@H](O)[C@@H](O)[C@H]2[C@H]1CO
TGI [1]: > 100000 nM
TGI [2]: > 100 µM
TGI [3]: > 100 µM
TGI [4]: > 100 µM
TGI [5]: > 100 µM
TGI [6]: > 100 µM
TGI [7]: > 100 µM
TGI [8]: > 100 µM
TGI [9]: > 100 µM
TGI [10]: > 100 µM
TGI [11]: > 100000 nM
TGI [12]: > 100 µM
TGI [13]: > 100 µM
TGI [14]: > 100 µM
TGI [15]: > 100000 nM
TGI [16]: > 100 µM
TGI [17]: > 100 µM
TGI [18]: > 100 µM
TGI [19]: > 100 µM
TGI [20]: > 100000 nM
TGI [21]: > 100 µM
TGI [22]: > 100 µM
TGI [23]: > 100 µM
TGI [24]: > 100 µM
TGI [25]: > 100 µM
TGI [26]: > 100 µM
TGI [27]: > 100 µM
TGI [28]: > 100 µM
TGI [29]: > 100 µM
TGI [30]: > 100 µM
TGI [31]: > 100 µM
TGI [32]: > 100 µM
TGI [33]: > 100000 nM
TGI [34]: > 100 µM
TGI [35]: > 100 µM
TGI [36]: > 100000 nM
TGI [37]: > 100 µM
TGI [38]: > 100 µM
TGI [39]: > 100 µM
TGI [40]: > 100 µM
TGI [41]: > 100 µM
TGI [42]: > 100000 nM
TGI [43]: > 100 µM
TGI [44]: > 100 µM
TGI [45]: > 100 µM
TGI [46]: > 100 µM
TGI [47]: > 100 µM
TGI [48]: > 100 µM
TGI [49]: > 100 µM
TGI [50]: > 100 µM
TGI [51]: > 100000 nM
TGI [52]: > 100000 nM

CN1CCN(CCOc2ccc(-c3cnc4c(-c5ccccc5F)cnn4c3)cc2)CC1
GI50 [1]: 647 nM
TGI [1]: 2120 nM
GI50 [2]: 2040 nM
TGI [2]: 4.73 µM
GI50 [3]: 1380 nM
TGI [3]: 3.93 µM
GI50 [4]: 1700 nM
TGI [4]: 3.07 µM
GI50 [5]: 1540 nM
TGI [5]: 3.08 µM
GI50 [6]: 1720 nM
TGI [6]: 3.29 µM
GI50 [7]: 1700 nM
TGI [7]: 3.19 µM
GI50 [8]: 1650 nM
TGI [8]: 3.37 µM
GI50 [9]: 1900 nM
TGI [9]: 3.77 µM
GI50 [10]: 1870 nM
TGI [10]: 3.41 µM
GI50 [11]: 1320 nM
TGI [11]: 2970 nM
GI50 [12]: 1860 nM
TGI [12]: 3.57 µM
GI50 [14]: 1810 nM
TGI [14]: 3.27 µM
GI50 [15]: 1430 nM
TGI [15]: 2900 nM
GI50 [16]: 1650 nM
TGI [16]: 3.07 µM
GI50 [17]: 1720 nM
TGI [17]: 3.23 µM
GI50 [18]: 1810 nM
TGI [18]: 3.58 µM
GI50 [53]: 1310 nM
TGI [53]: 3.15 µM
GI50 [19]: 1690 nM
TGI [19]: 3.17 µM
GI50 [54]: 2000 nM
TGI [54]: 5.22 µM
GI50 [20]: 1610 nM
TGI [20]: 2960 nM
GI50 [21]: 1730 nM
TGI [21]: 3.26 µM
GI50 [24]: 1770 nM
TGI [24]: 3.26 µM
GI50 [25]: 1630 nM
TGI [25]: 3 µM
GI50 [55]: 1780 nM
TGI [55]: 3.6 µM
GI50 [27]: 1630 nM
TGI [27]: 3.05 µM
GI50 [28]: 1760 nM
TGI [28]: 3.2 µM
GI50 [29]: 1700 nM
TGI [29]: 3.54 µM
GI50 [31]: 1570 nM
TGI [31]: 5.44 µM
GI50 [32]: 2920 nM
TGI [32]: 10.6 µM
GI50 [33]: 1560 nM
TGI [33]: 2900 nM
GI50 [34]: 1820 nM
TGI [34]: 3.52 µM
GI50 [35]: 2590 nM
TGI [35]: > 100 µM
GI50 [36]: 1250 nM
TGI [36]: 2630 nM
GI50 [38]: 1730 nM
TGI [38]: 3.25 µM
GI50 [40]: 1700 nM
TGI [40]: 3.1 µM
GI50 [42]: 1590 nM
TGI [42]: 2960 nM
GI50 [43]: 1550 nM
TGI [43]: 4.49 µM
GI50 [44]: 1790 nM
TGI [44]: 4.36 µM
GI50 [45]: 2090 nM
TGI [45]: 3.9 µM
GI50 [46]: 1850 nM
TGI [46]: 4.77 µM
GI50 [47]: 1810 nM
TGI [47]: 4.02 µM
GI50 [48]: 1780 nM
TGI [48]: 3.29 µM
GI50 [49]: 2400 nM
TGI [49]: 6.42 µM
GI50 [56]: 1350 nM
TGI [56]: 2660 nM
GI50 [51]: 1330 nM
TGI [51]: 2690 nM
GI50 [57]: 1690 nM
TGI [57]: 3.39 µM
GI50 [52]: 1560 nM
TGI [52]: 2950 nM

O=[N+]([O-])C(=C(Cl)Cl)/C(Cl)=C(\Cl)Br
outcome [16]: inactive
outcome [17]: inactive
outcome [19]: inactive
outcome [54]: inactive
outcome [21]: inactive
outcome [28]: inactive
outcome [50]: inactive
